Test results as given in EP3760291B1 (Stellenbosch University, priority 2019, dated 2021).

Columns and labels:
[1] = water; cited from earlier work
[2] = Partitioning of resveratrol from biomass (grape pomace) in polymer-salt (PEG-salt) aqueous two-phase system; assay type: physicochemical; conditions: about 10% (w/w) PEG 8000 and about 15% (w/w) tartrate salt; raw biomass
[3] = as above; assay type: physicochemical
Excerpt: The partitioning of the polyphenolic biomolecule can be quantified using parameters such as the partition coefficient (K) and the yield (Y). The partition coefficient reflects the extent of separation of the polyphenolic compound into the polymer phase. It is defined as the ratio of […]. Partition coefficients of more than 1 indicate a higher concentration of the specific molecule in the top phase. The partition coefficient (K) is calculated with equation 5 in which cT is the concentration of the molecule in the top phase and CB is the concentration of the molecule in the bottom phase. K = (CT)/(CB) [formula]
Polymer-salt aqueous two-phase systems with PEG of different molecular weights were prepared using PEG 400 (Mw =400 g/mol), PEG 1000 (Mw =1000 g/mol), PEG 4000 (Mw =4000 g/mol), PEG 8000 (Mw =8000 g/mol), and PEG 10000 (Mw =10 000 g/mol).
Two different ATP systems with different polymer and salt concentrations were investigated. System A contains 11 wt% PEG and 26 wt% ammonium sulphate and system B contains 13 wt% PEG and 13 wt% ammonium sulphate. Table 2. Quantities of materials used to extract resveratrol in systems A and B
20 ml pomace was added to a polymer-salt ATP systems comprising 20 ml water, 5 g PEG 8000 (11 wt%) and 2.5 g (7 wt%), 5 g (13 wt%), 8 g (19 wt%) and 12 g (26 wt%) ammonium salt, respectively.
20 ml pomace was added to a polymer-salt ATP systems comprising 11 wt% PEG 8000 and 26 wt% tartrate, citrate, sulphate and phosphate salt solutions (20 ml water), respectively. The partition coefficient and percentage extraction of resveratrol to the PEG top phase was determined for each of the different types of salts.
The bottom phase of the ATPS (consisting of the salt solution) therefore only contained trace amounts of resveratrol, with the remaining resveratrol still contained in the biomass. It was therefore assumed that within the bottom phases exiting the polymer-salt ATPS reactor, that the remaining resveratrol that was not extracted would be contained within the raw biomass of grape pomace and canes, and not in the salt solution.

[4] = assay type: physicochemical; conditions: pH 11.03
Description: Polymer-polymer aqueous two-phase systems were prepared using maltodextrin (mdx) in combination with PEG 4000 and PEG 8000. […] Demineralised water was added to yield a net weight of 200 g of solution.
Control/base solutions were prepared to be used as a baseline in the spectrophotometer by preparing the same solutions described above, but without resveratrol.
The aqueous two-phase systems were formed by continuously stirring the solutions using a magnetic stirrer for 30 minutes. […] In both the extraction solution and in the base solution two distinct phases were formed. 1 ml of the bottom phase of the extraction solution was separated from the system using a pipette tapped into an Erlenmeyer flask and 1 ml of the bottom phase of the blank solution was poured into a separate Erlenmeyer flask. The solutions were diluted by adding 50 ml of demineralised water to each.
Cuvettes containing the base solution were placed in the spectrophotometer and the system baselined. One of the cuvettes was then removed, rinsed with the diluted top phase of the extraction solution, and filled with the solution. […] The absorbance at the peak was then used to quantify the resveratrol content.
The resveratrol content of the top phase was quantified using the same methodology as for the bottom phase, using the top phase of the base solution to baseline the spectrophotometer. […]

Oc1ccc(C=Cc2cc(O)cc(O)c2)cc1 [resveratrol]
aqueous solubility [1]: 3 mg/100 ml | resveratrol partitioning to the top phase [2]: 99.6% | Partition Coefficient ([3]; 11 wt% PEG 8000, Ammonium sulphate, 25,5 wt% salt, to PEG top phase): 351 | Partition Coefficient ([3]; 11 wt% PEG 8000, Potassium hydrogen phosphate trihydrate, 25,5 wt% salt, to PEG top phase): 218 | Partition Coefficient ([3]; 11 wt% PEG 8000, Potassium sodium tartrate tetrahydrate, 25,5 wt% salt, to PEG top phase): 177 | Partition Coefficient ([3]; 11 wt% PEG 8000, Tri-sodium citrate dihydrate, 25,5 wt% salt, to PEG top phase): 79 | Partition Coefficient ([3]; PEG 8000 (11 wt%), 7 wt% ammonium sulphate, to PEG top phase): 78 | Partition Coefficient ([3]; PEG 8000 (11 wt%), 13 wt% ammonium sulphate, to PEG top phase): 242 | Partition Coefficient ([3]; PEG 8000 (11 wt%), 19 wt% ammonium sulphate, to PEG top phase): 334 | Partition Coefficient ([3]; PEG 8000 (11 wt%), 26 wt% ammonium sulphate, to PEG top phase): 351 | Partition Coefficient ([3]; System A: 11 wt% PEG, 26 wt% ammonium sulphate, PEG 400, to PEG top phase): 164 | Partition Coefficient ([3]; System A: 11 wt% PEG, 26 wt% ammonium sulphate, PEG 1000, to PEG top phase): 177 | Partition Coefficient ([3]; System A: 11 wt% PEG, 26 wt% ammonium sulphate, PEG 4000, to PEG top phase): 341 | Partition Coefficient ([3]; System A: 11 wt% PEG, 26 wt% ammonium sulphate, PEG 8000, to PEG top phase): 351 | Partition Coefficient ([3]; System A: 11 wt% PEG, 26 wt% ammonium sulphate, PEG 10000, to PEG top phase): 174 | Partition Coefficient ([3]; System B: 13 wt% PEG, 13 wt% ammonium sulphate, PEG 4000, to PEG top phase): 33 | Partition Coefficient ([3]; System B: 13 wt% PEG, 13 wt% ammonium sulphate, PEG 8000, to PEG top phase): 242 | Partition Coefficient ([3]; System B: 13 wt% PEG, 13 wt% ammonium sulphate, PEG 10000, to PEG top phase): 200 | partition coefficient of the system [4]: 1.36
